This series can be described thus: solubility of carisbamate in water. Format: physicochemical. The settings on record: described as slightly soluble. Here is the method:
Carisbamate has been problematic to formulate in an aqueous suspension because it is slightly soluble in water, i.e., more than 2 mg/ml, so that temperature changes can cause the carisbamate particles to dissolve in the aqueous suspension medium and then re-crystallize out on the remaining carisbamate crystals and change the size of the resulting crystals or re crystallize in a different polymorphic form. This change in crystal size or polymorphic form, e.g., from Form A to Form B, can cause an undesirable change in bioavailability of the suspension. The present invention is based in part on the discovery that the addition of hypromellose (hydroxypropyl methyl cellulose or HPMC) in the proper concentration will prevent or stabilize this crystal growth and therefore serve to stabilize the suspension maintaining bioavailability and improving shelf life of the product.

Some results are limits rather than exact numbers.

By solubility is commonly meant how much of the substance goes into solution per volume. On to `NC(=O)OC[C@@H](O)c1ccccc1Cl` [Carisbamate, S-(2-(2-chlorophenyl)-2-hydroxyethyl) oxocarboxamide], for which the solubility was greater than 2000 µg/mL.

The values are drawn from US10201519B2, “Stabilized pediatric suspension of carisbamate” (SK BIOPHARMACEUTICALS CO., LTD., priority 2007, dated 2019).
